Source: ChEMBL document CHEMBL3046898, “Synthesis and characterization of flurbiprofen hydrazide derivatives as potential anti-HCV, anticancer and antimicrobial agents” (2013)
The source made the active and inactive calls. The calls are words filed in the database; no cut-off is given here.

Tests used:
[1] = test system: NCI-H226; assay: Cytotoxicity against human NCI-H226 assessed as cell growth at 10 uM after 48 hrs by SRB assay; format: functional; conditions: NCI-H226, 48 h, read-out: Activity
[2] = test system: OVCAR-8; assay: Cytotoxicity against human OVCAR8 assessed as cell growth at 10 uM after 48 hrs by SRB assay; format: functional; conditions: OVCAR-8, 48 h, read-out: Activity
[3] = test system: CAKI-1; assay: Cytotoxicity against human Caki1 assessed as cell growth at 10 uM after 48 hrs by SRB assay; format: functional; conditions: CAKI-1, 48 h, read-out: Activity
[4] = test system: SF-295; assay: Cytotoxicity against human SF295 assessed as cell growth at 10 uM after 48 hrs by SRB assay; format: functional; conditions: SF-295, 48 h, read-out: Activity
[5] = test system: Pseudomonas aeruginosa; assay: Antibacterial activity against Pseudomonas aeruginosa at 6.25 to 200 ug/ml after 24 hrs by microwell dilution method; format: functional, organism-based
[6] = test system: 786-0; assay: Cytotoxicity against human 786-0 assessed as cell growth at 10 uM after 48 hrs by SRB assay; format: functional; conditions: 786-0, 48 h, read-out: Activity
[7] = test system: Staphylococcus aureus; assay: Antibacterial activity against Staphylococcus aureus at 10 mg/ml after 24 hrs by disc diffusion method; format: functional
[8] = test system: HCT-116; assay: Cytotoxicity against human HCT116 assessed as cell growth at 10 uM after 48 hrs by SRB assay; format: functional; conditions: HCT-116, 48 h, read-out: Activity
[9] = test system: SW-620; assay: Cytotoxicity against human SW620 assessed as cell growth at 10 uM after 48 hrs by SRB assay; format: functional; conditions: SW-620, 48 h, read-out: Activity
[10] = test system: KM12; assay: Cytotoxicity against human KM12 assessed as cell growth at 10 uM after 48 hrs by SRB assay; format: functional; conditions: KM12, 48 h, read-out: Activity
[11] = test system: PC-3; assay: Cytotoxicity against human PC3 assessed as cell growth at 10 uM after 48 hrs by SRB assay; format: functional; conditions: PC-3, 48 h, read-out: Activity
[12] = test system: Pichia membranifaciens; assay: Antifungal activity against Pichia membranifaciens at 10 mg/ml after 48 hrs by disc diffusion method; format: functional, organism-based
[13] = test system: Staphylococcus cohnii; assay: Antibacterial activity against Staphylococcus cohnii at 10 mg/ml after 24 hrs by disc diffusion method; format: functional
[14] = test system: A498; assay: Cytotoxicity against human A498 assessed as cell growth at 10 uM after 48 hrs by SRB assay; format: functional; conditions: A498, 48 h, read-out: Activity
[15] = test system: MDA-MB-231; assay: Cytotoxicity against human MDA-MB-231 assessed as cell growth at 10 uM after 48 hrs by SRB assay; format: functional; conditions: MDA-MB-231, 48 h, read-out: Activity
[16] = test system: OVCAR-5; assay: Cytotoxicity against human OVCAR5 assessed as cell growth at 10 uM after 48 hrs by SRB assay; format: functional; conditions: OVCAR-5, 48 h, read-out: Activity
[17] = test system: HCT-15; assay: Cytotoxicity against human HCT15 assessed as cell growth at 10 uM after 48 hrs by SRB assay; format: functional; conditions: HCT-15, 48 h, read-out: Activity
[18] = Cytotoxicity against human NCI-ADR-RES assessed as cell growth at 10 uM after 48 hrs by SRB assay; format: functional; conditions: read-out: Activity
[19] = test system: HT-29; assay: Cytotoxicity against human HT-29 assessed as cell growth at 10 uM after 48 hrs by SRB assay; format: functional; conditions: HT-29, 48 h, read-out: Activity
[20] = test system: Escherichia coli; assay: Antibacterial activity against Escherichia coli at 6.25 to 200 ug/ml after 24 hrs by microwell dilution method; format: functional, organism-based
[21] = test system: DU-145; assay: Cytotoxicity against human DU145 assessed as cell growth at 10 uM after 48 hrs by SRB assay; format: functional; conditions: DU-145, 48 h, read-out: Activity
[22] = test system: SF-539; assay: Cytotoxicity against human SF539 assessed as cell growth at 10 uM after 48 hrs by SRB assay; format: functional; conditions: SF-539, 48 h, read-out: Activity
[23] = test system: Micrococcus luteus; assay: Antibacterial activity against Micrococcus luteus at 10 mg/ml after 24 hrs by disc diffusion method; format: functional, organism-based
[24] = test system: Micrococcus lylae; assay: Antibacterial activity against Micrococcus lylae at 6.25 to 200 ug/ml after 24 hrs by microwell dilution method; format: functional, organism-based
[25] = test system: Kluyveromyces marxianus; assay: Antifungal activity against Kluyveromyces marxianus at 10 mg/ml after 48 hrs by disc diffusion method; format: functional, organism-based
[26] = test system: SK-OV-3; assay: Cytotoxicity against human SKOV3 assessed as cell growth at 10 uM after 48 hrs by SRB assay; format: functional; conditions: SK-OV-3, 48 h, read-out: Activity
[27] = test system: Candida albicans; assay: Antifungal activity against Candida albicans at 10 mg/ml after 48 hrs by disc diffusion method; format: functional, organism-based
[28] = test system: K562; assay: Cytotoxicity against human K562 assessed as cell growth at 10 uM after 48 hrs by SRB assay; format: functional; conditions: K562, 48 h, read-out: Activity
[29] = test system: Salmonella paratyphi; assay: Antibacterial activity against Salmonella paratyphi at 10 mg/ml after 24 hrs by disc diffusion method; format: functional, organism-based; conditions: Salmonella enterica subsp. enterica serovar Paratyphi A
[30] = test system: SR; assay: Cytotoxicity against human SR assessed as cell growth at 10 uM after 48 hrs by SRB assay; format: functional; conditions: read-out: Activity
[31] = test system: SK-MEL-5; assay: Cytotoxicity against human SK-MEL-5 assessed as cell growth at 10 uM after 48 hrs by SRB assay; format: functional; conditions: SK-MEL-5, 48 h, read-out: Activity
[32] = test system: Photorhabdus luminescens; assay: Antibacterial activity against Photorhabdus luminescens at 10 mg/ml after 24 hrs by disc diffusion method; format: functional, organism-based
[33] = test system: NCI-H522; assay: Cytotoxicity against human NCI-H522 assessed as cell growth at 10 uM after 48 hrs by SRB assay; format: functional; conditions: NCI-H522, 48 h, read-out: Activity
[34] = test system: SF-268; assay: Cytotoxicity against human SF268 assessed as cell growth at 10 uM after 48 hrs by SRB assay; format: functional; conditions: SF-268, 48 h, read-out: Activity
[35] = test system: HOP-92; assay: Cytotoxicity against human HOP92 assessed as cell growth at 10 uM after 48 hrs by SRB assay; format: functional; conditions: HOP-92, 48 h, read-out: Activity
[36] = test system: SK-MEL-28; assay: Cytotoxicity against human SK-MEL-28 assessed as cell growth at 10 uM after 48 hrs by SRB assay; format: functional; conditions: SK-MEL-28, 48 h, read-out: Activity
[37] = test system: NCI-H322M; assay: Cytotoxicity against human NCI-H322M assessed as cell growth at 10 uM after 48 hrs by SRB assay; format: functional; conditions: read-out: Activity
[38] = test system: SK-MEL-2; assay: Cytotoxicity against human SK-MEL-2 assessed as cell growth at 10 uM after 48 hrs by SRB assay; format: functional; conditions: SK-MEL-2, 48 h, read-out: Activity
[39] = test system: Candida tropicalis; assay: Antifungal activity against Candida tropicalis at 10 mg/ml after 48 hrs by disc diffusion method; format: functional, organism-based
[40] = test system: SN12C; assay: Cytotoxicity against human SN12C assessed as cell growth at 10 uM after 48 hrs by SRB assay; format: functional; conditions: read-out: Activity
[41] = test system: COLO 205; assay: Cytotoxicity against human COLO205 assessed as cell growth at 10 uM after 48 hrs by SRB assay; format: functional; conditions: COLO 205, 48 h, read-out: Activity

Work on `CC(C(=O)NN1C(=O)CSC1c1ccc(C(F)(F)F)cc1)c1ccc(-c2ccccc2)c(F)c1` (stereo unspecified) yielded a growth at 10 µM [1] of 86%, a growth at 10 µM [2] of 86.5% and a growth at 10 µM [3] of 33.6%. The growth at 10 µM [4] was 58.4%, the Activity [5] was “inactive” and the growth at 10 µM [6] was 47.2%. The Activity [7] was “inactive”, the growth at 10 µM [8] was 45.5% and the growth at 10 µM [9] was 83.9%. The growth at 10 µM [10] was 46.2%, the growth at 10 µM [11] was 37.5% and the Activity [12] was “inactive”. The Activity [13] was “inactive”, the growth at 10 µM [14] was 56.8% and the growth at 10 µM [15] was 70.1%. It also gave a growth at 10 µM [16] of 105%, a growth at 10 µM [17] of 69.5% and a growth at 10 µM [18] of 86.5%. For the same compound, the growth at 10 µM [19] was 55.1%, the Activity [20] was “inactive” and the growth at 10 µM [21] was 81.5%. The growth at 10 µM [22] was 63%, the Activity [23] was “inactive” and the Activity [24] was “inactive”. The Activity [25] was “inactive”, the growth at 10 µM [26] was 94.7% and the Activity [27] was “inactive”. The growth at 10 µM [28] was 39.5%, the Activity [29] was “inactive” and the growth at 10 µM [30] was 20.8%. The growth at 10 µM [31] was 81.8%, the Activity [32] was “inactive” and the growth at 10 µM [33] was 79.5%. It also gave a growth at 10 µM [34] of 62.1%, a growth at 10 µM [35] of 59.9% and a growth at 10 µM [36] of 99.9%. The growth at 10 µM [37] was 76.9%, the growth at 10 µM [38] was 88.4% and the Activity [39] was “inactive”. It also gave a growth at 10 µM [40] of 72.3% and a growth at 10 µM [41] of 108%.
